Data published in ChEMBL document CHEMBL4706648, “Antitubercular 2-Pyrazolylpyrimidinones: Structure-Activity Relationship and Mode-of-Action Studies” (J Med Chem, 2021).
Converted amounts (≈) assume the structure as drawn. The source made the active and inactive calls. The rule behind the calls is not given here.

What was measured:
[1] = Volume of distribution during elimination phase in C57/BL6 mouse blood at 2 mg/kg, iv administered as bolus dose measured upto 24 hrs by LC-MS/MS analysis; format: ADME, organism-based; conditions: C57/BL6, mouse, blood, read-out: Vd
[2] = Metabolic stability in human liver microsomes assessed as parent compound remaining after 30 mins; format: ADME, Microsome; conditions: 0.5 h
[3] = Aqueous solubility of compound at pH 7.4; format: physicochemical; conditions: buffer
[4] = Metabolic stability in mouse liver microsomes assessed as parent compound remaining after 30 mins; format: ADME, Microsome; conditions: 0.5 h
[5] = tested on: Mycobacterium tuberculosis; assay: Bactericidal activity against Mycobacterium tuberculosis H37Rv assessed as reduction in CFU grown under middlebrook 7H9/OADC-Glycerol-Tween80 medium at 1 to 2 times MIC incubated for 7 days; format: functional; conditions: time 7 day
[6] = Apparent half life in C57/BL6 mouse blood at 2 mg/kg, iv administered as bolus dose measured upto 24 hrs by LC-MS/MS analysis; format: ADME, organism-based; conditions: C57/BL6, mouse, blood, read-out: t1/2(app) (converted)
[7] = Cmax in C57/BL6 mouse blood at 2 mg/kg, iv administered as bolus dose measured upto 24 hrs by LC-MS/MS analysis; format: ADME, organism-based; set-up: route intravenous, dose 2 mg/kg, time <=24; conditions: C57/BL6, mouse, blood
[8] = Oral bioavailability in C57/BL6 mouse blood at 20 mg/kg measured upto 24 hrs by LC-MS/MS analysis; format: ADME, organism-based; conditions: C57/BL6, mouse, blood
[9] = AUC (0 to infinity) in C57/BL6 mouse blood at 2 mg/kg, iv administered as bolus dose measured upto 24 hrs by LC-MS/MS analysis; format: ADME, organism-based; set-up: route intravenous, dose 2 mg/kg, time <=24; conditions: C57/BL6, mouse, blood
[10] = tested on: Mycobacterium tuberculosis; format: functional; conditions: H37Rv, 168 h, time 7 day
[11] = Apparent half life in C57/BL6 mouse blood at 20 mg/kg, po measured upto 24 hrs by LC-MS/MS analysis; format: ADME, organism-based; conditions: C57/BL6, mouse, blood, read-out: t1/2(app) (converted)
[12] = Cmax in C57/BL6 mouse blood at 20 mg/kg, po measured upto 24 hrs by LC-MS/MS analysis; format: ADME, organism-based; set-up: route oral, dose 20 mg/kg, time <=24; conditions: C57/BL6, mouse, blood
[13] = Tmax in C57/BL6 mouse blood at 20 mg/kg, po measured upto 24 hrs by LC-MS/MS analysis; format: ADME, organism-based; conditions: C57/BL6, mouse, blood, read-out: Tmax
[14] = Metabolic stability in rat liver microsomes assessed as parent compound remaining after 30 mins; format: ADME, Microsome; conditions: 0.5 h
[15] = Intrinsic clearance in C57/BL6 mouse blood at 2 mg/kg, iv administered as bolus dose measured upto 24 hrs by LC-MS/MS analysis; format: ADME, organism-based; conditions: in vivo
[16] = Kinetic solubility of compound at 200 uM at pH 7.4 measured after 20 hrs by HPLC-DAD analysis; format: physicochemical; conditions: buffer, pH 7.4, 20 h
[17] = Total blood clearance in C57/BL6 mouse blood at 2 mg/kg, iv administered as bolus dose measured upto 24 hrs by LC-MS/MS analysis; format: ADME, organism-based
[18] = tested on: Mycobacterium tuberculosis; assay: Antimycobacterial activity against mmpL3 gene silenced Mycobacterium tuberculosis H37Rv assessed as inhibition of bacterial growth grown under middlebrook 7H9 medium incubated for 7 days by alamar blue broth microdilution method; format: functional, organism-based; conditions: time 7.0 day
[19] = Protein binding in human plasma assessed as unbound fraction at 5 uM incubated for 1 hr at 37 degreeC and measured after 4 hrs by ultracentrifugation based LC-MS/MS analysis; format: ADME, cell-free; conditions: 5 h
CHO = assay: Cytotoxicity against CHO cells assessed as reduction in cell viability by MTT assay; format: cell-based; conditions: Cricetulus griseus
[20] = AUC (0 to infinity) in C57/BL6 mouse blood at 20 mg/kg, po measured upto 24 hrs by LC-MS/MS analysis; format: ADME, organism-based; set-up: route oral, dose 20 mg/kg, time <=24
[21] = tested on: Mycobacterium tuberculosis; assay: Antimycobacterial activity against wild-type Mycobacterium tuberculosis H37Rv assessed as inhibition of bacterial growth grown under middlebrook 7H9 medium incubated for 7 days by alamar blue broth microdilution method; format: functional; conditions: 168 h, time 7 day
[22] = Drug metabolism in C57/BL6 mouse blood assessed as glucuronide metabolite formation by HPLC analysis; format: ADME, tissue-based
[23] = tested on: Mycobacterium tuberculosis; format: functional; conditions: H37Rv, 168 h, time 7 day; remark: listed apart in the source
[24] = Solubility of compound at 3 uM; format: physicochemical
HepG2 [25] = assay: Antiproliferative activity against human HepG2 cells assessed as reduction in cell viability grown under galactose medium by MTT assay; format: functional, cell-based
[26] = Lipophilicity, log D of the compound in n-octanol and phosphate buffer at pH 7.4 measured after 3 hrs by HPLC-DAD analysis; format: physicochemical
[27] = tested on: Mycobacterium tuberculosis; format: functional; conditions: H37Rv, 168 h, time 7 day; remark: listed apart in the source
[28] = tested on: Mycobacterium tuberculosis; format: functional; conditions: H37Rv, 168 h, time 7 day; remark: listed apart in the source
HepG2 [29] = assay: Antiproliferative activity against human HepG2 cells assessed as reduction in cell viability grown under glucose medium by MTT assay; format: functional, cell-based
[30] = Metabolic stability in rat liver microsomes assessed as parent compound remaining at 1 uM in presence of NADPH by LC-MS/MS analysis; format: ADME, Microsome
[31] = Metabolic stability in human liver microsomes assessed as parent compound remaining at 1 uM in presence of NADPH by LC-MS/MS analysis; format: ADME, Microsome
[32] = Metabolic stability in mouse liver microsomes assessed as parent compound remaining at 1 uM in presence of NADPH by LC-MS/MS analysis; format: ADME, Microsome
[33] = tested on: Mycobacterium tuberculosis; format: functional; conditions: H37Rv, 168 h, time 7 day; remark: listed apart in the source
[34] = target: Voltage-gated inwardly rectifying potassium channel KCNH2 (Homo sapiens, UniProt Q12809); assay: Inhibition of human ERG
Voltage-gated inwardly rectifying potassium channel KCNH2, sequence (Q12809 whole entry): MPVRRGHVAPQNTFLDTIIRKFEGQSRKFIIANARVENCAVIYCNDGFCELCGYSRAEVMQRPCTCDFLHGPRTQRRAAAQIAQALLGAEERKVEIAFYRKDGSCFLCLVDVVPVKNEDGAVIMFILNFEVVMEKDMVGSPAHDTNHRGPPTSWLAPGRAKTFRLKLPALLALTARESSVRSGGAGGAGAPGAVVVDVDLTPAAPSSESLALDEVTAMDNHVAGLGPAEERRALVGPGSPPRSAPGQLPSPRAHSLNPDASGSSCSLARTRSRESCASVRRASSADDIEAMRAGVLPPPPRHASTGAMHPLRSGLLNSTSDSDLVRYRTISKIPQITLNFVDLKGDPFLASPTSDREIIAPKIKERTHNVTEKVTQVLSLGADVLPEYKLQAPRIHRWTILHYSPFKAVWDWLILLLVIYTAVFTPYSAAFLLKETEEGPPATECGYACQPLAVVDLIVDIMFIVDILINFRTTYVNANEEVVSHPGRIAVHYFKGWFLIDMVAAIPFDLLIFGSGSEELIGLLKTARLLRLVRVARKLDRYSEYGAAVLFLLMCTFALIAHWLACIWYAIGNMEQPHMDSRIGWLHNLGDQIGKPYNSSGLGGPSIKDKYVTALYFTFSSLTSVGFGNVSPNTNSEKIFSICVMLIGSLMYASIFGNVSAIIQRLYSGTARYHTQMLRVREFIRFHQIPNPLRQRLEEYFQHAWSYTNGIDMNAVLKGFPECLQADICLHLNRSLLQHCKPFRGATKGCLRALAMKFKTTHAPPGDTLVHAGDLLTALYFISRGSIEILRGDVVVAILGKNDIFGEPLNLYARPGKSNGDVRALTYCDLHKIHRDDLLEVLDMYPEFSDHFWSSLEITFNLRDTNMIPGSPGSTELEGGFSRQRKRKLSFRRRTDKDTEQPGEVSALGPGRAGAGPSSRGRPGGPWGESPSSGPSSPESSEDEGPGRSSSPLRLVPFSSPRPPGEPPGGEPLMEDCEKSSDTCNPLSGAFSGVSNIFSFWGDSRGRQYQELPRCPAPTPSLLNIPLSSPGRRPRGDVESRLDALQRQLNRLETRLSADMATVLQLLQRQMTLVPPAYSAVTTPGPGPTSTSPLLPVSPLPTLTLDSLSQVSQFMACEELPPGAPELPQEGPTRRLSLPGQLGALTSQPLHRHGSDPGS

[35] = tested on: Mycobacterium tuberculosis; format: functional; conditions: H37Rv, 168 h, time 7 day; remark: listed apart in the source

| Structure (SMILES) | Vd [1] [L/kg] | Stabilty [2] [%] | solubility [3] [µM] | Stabilty [4] [%] | Activity [5] [log10CFU] | half-life [6] [min] | Cmax [7] [µM] | bioavailability [8] [%] | AUC(0-inf) [9] [µM·h] | MIC [10] [µM] | half-life [11] [min] | Cmax [12] [µM] | Tmax [13] [min] | Stabilty [14] [%] | CL [15] [mL/min/kg] | Kinetic_solubility [16] [µM] | clearance [17] [mL/min/kg] | Activity [18] | IC50 (CHO) [µM] | MIC [21] [µM] | also measured |
| --- | --- | --- | --- | --- | --- | --- | --- | --- | --- | --- | --- | --- | --- | --- | --- | --- | --- | --- | --- | --- | --- |
| Cc1cc(Nc2ccc(F)cc2)n(-c2nc(C(F)(F)F)cc(=O)[nH]2)n1 | 37.4 | 98 | 15 (≈ 5.3 µg/mL) | 96 | 2 | 336 | 2.4 | 33 | 1.52 | 1.56 (≈ 0.551 µg/mL) | 264 | 2.9 | 30 | 98 | > 4000 | 15 | 80.9 | Active | 20 | 1.2 (≈ 0.424 µg/mL) | Fu [19]: 0.013; AUC(0-inf) [20]: 5.22 µM·h |
| CCNc1cc(C)nn1-c1nc(-c2cccnc2)cc(=O)[nH]1 | 0.1 | 80 | 90 (≈ 26.7 µg/mL) | 94 | 2 | 240 | 33.1 | 44 | 256 | 6.25 (≈ 1.85 µg/mL) | 366 | 104 | 60 | 95 | 34 | 90 | 0.4 | Active | > 50 | 5.8 (≈ 1.72 µg/mL) | Drug metabolism [22]: Metabolite_Detected; Fu [19]: 0.009; AUC(0-inf) [20]: 1090 µM·h |
| Cc1cc(C)n(-c2nc(O)cc(-c3ccccc3)n2)n1 |  |  | 10 (≈ 2.66 µg/mL) |  |  |  |  |  |  | 1.5 (≈ 0.399 µg/mL) |  |  |  |  |  |  |  | Active | 8 | 1.7 (≈ 0.453 µg/mL) | MIC [23]: 0.6 µM (≈ 0.16 µg/mL); solubility at 3 µM [24]: 180 µM (≈ 47.9 µg/mL); IC50 (HepG2 [25]): 4 µM; logD at 3 h [26]: 2.5; MIC [27]: 0.4 µM (≈ 0.107 µg/mL); MIC [28]: 1.5 µM (≈ 0.399 µg/mL); IC50 (HepG2 [29]): 4 µM; Stabilty [30]: 69%; Stabilty [31]: 98%; Stabilty [32]: 22%; MIC [33]: 0.3 µM (≈ 0.0799 µg/mL); IC50 [34]: > 30 µM; MIC [35]: 0.02 µM (≈ 0.00533 µg/mL) |
